Results published in patent US20040229219A1 (priority 2003, published 2004).

How the values were obtained:
measles virus = conditions: cited from earlier work
HIV-1 = conditions: cited from earlier work

## carbobenzoxy derivative of phenylalanine-phenylalanine-glycine [z-FFG]
Measles virus
  activity against measles virus: effective

## enfuvirtide
HIV-1
  concentration range that suppresses HIV-1 infection: nanomolar range

## CC[C@H](C)[C@H](NC(=O)[C@H](CC(C)C)NC(=O)[C@H](CC(C)C)NC(=O)[C@H](Cc1c[nH]c2ccccc12)NC(=O)[C@@H](NC(=O)[C@H](Cc1ccc(O)cc1)NC(=O)[C@H](Cc1c[nH]c2ccccc12)NC(=O)[C@@H]1CCCN1C(=O)[C@H](Cc1c[nH]c2ccccc12)NC(=O)[C@H](CCCCN)NC(=O)[C@@H](NC(=O)[C@H](Cc1ccc(O)cc1)NC(=O)[C@H](CCSC)NC(=O)[C@H](CCC(=O)O)NC(=O)[C@H](Cc1ccc(O)cc1)NC(=O)[C@@H](NC(=O)CNC(=O)[C@@H](NC(=O)[C@H](CCC(=O)O)NC(=O)[C@H](CCCCN)NC(=O)[C@H](CC(C)C)NC(=O)[C@H](CC(N)=O)NC(=O)[C@@H](NC(=O)[C@H](Cc1ccc(O)cc1)NC(=O)[C@H](CO)NC(=O)[C@H](CCC(=O)O)NC(=O)[C@H](CC(N)=O)NC(=O)[C@H](CC(C)C)NC(=O)[C@H](CCCCN)NC(=O)[C@H](CCCCN)NC(=O)[C@@H](NC(=O)[C@H](C)NC(=O)[C@H](CC(=O)O)NC(=O)[C@H](CCC(N)=O)NC(=O)[C@@H](NC(=O)[C@@H](N)CCCNC(=N)N)[C@@H](C)CC)[C@@H](C)CC)[C@@H](C)CC)C(C)C)[C@@H](C)O)C(C)C)C(C)C)C(=O)O [SEQ ID NO: 52]
L2 cells
  non-specific cytotoxic effects of the peptide on cells (morphology): normal morphology
